The assay deals with VM-M3 cells. Description: KDE in VM-M3 model of cancer anorexia cachexia syndrome (Experiment 4c). It is filed as in vivo, VM/Dk mice. As to conditions: 30% KDE in diet. From the text: Animals: Five breeding pairs of the VM/Dk strain of mice were used to establish and propagate a VM/Dk mouse colony in the University of South Florida (USF) Morsani College of Medicine Vivarium according to standard husbandry protocol. Male and female VM/Dk mice between 10-23 weeks of age were singly housed to accurately assess individual animal food intake. Bodyweight and food intake were tracked daily prior to and post-social isolation to ensure bodyweight and food intake normalized prior to cell inoculation (Table 1). Animals were distributed into one of four groups: Sham Male (SH-M), Sham Female (SH-F), Cancer Male (CA-M), and Cancer Female (CA-F). Each cancer animal was matched with a sham animal of equivalent sex, bodyweight, age, and food intake (FIGS. 8A-8B) to ensure appropriate cancer and sex-specific comparisons. To determine KDE-induced effects in CACS, VM/Dk animals were distributed into one of three groups: KDE+VM-M3, VM-M3, and Sham with equivalent sex, bodyweight, age and food intake at baseline (FIG. 13A). One premature death occurred in SH-F (Experiment 1a) and Sham (Experiment 4c) groups immediately post-inoculation. To determine KDE-induced effects post-LPS administration, VM/Dk animals were distributed into two groups (FIGS. 14A-14B): KDE+LPS and LPS of equivalent bodyweights. All procedures were approved by the USF Institutional Animal Care and Use Committee (USF IACUC; Protocol Number R1900 & R5829) and performed under strict adherence to the NIH Guide for the Care and Use of Laboratory Animals.
VM-M3 Cell and Lipopolysaccharide Implantation: For VM-M3 implantation in the model characterization experiments (FIG. 1-5; FIG. 8-12), ˜1×10^6 VM-M3 cells (T. Seyfried, Boston College) in 300 μL sterile PBS (CA-M and CA-F) or 300 μL sterile PBS-only (SH-M and SH-F) were injected subcutaneously into the left abdominal flank resulting in primary tumor formation at the injection site, and subsequently systemically metastasizes to most major organs, namely the liver, kidneys, spleen, lungs, and brain. […] This method of implantation further minimized variability in markers of tumor progression, and therefore provides a useful optional method technique in the VM-M3 model for efficient analysis of potential therapeutic agents. To determine KDE-induced effects on CACS, 1×10^6 VM-M3 cells in 300 μL sterile PBS (KDE+VM-M3 and VM-M3) or 300 μL sterile PBS-only (Sham) were administered intraperitoneally (FIG. 6; FIG. 13). For LPS administration in the septic atrophy model, LPS (Escherichia coli 055:B5; L2880; Sigma-Aldrich, St. Louis, MO) was diluted in sterile PBS and administered intraperitoneally at 10 mg/kg as pilot work indicated a maximal, yet non-fatal, ˜15% bodyweight reduction at 10 mg/kg dose.
Tumor Growth and Metastasis: Tumor growth was monitored weekly as a measure of bioluminescence using the Xenogen IVIS Spectrum system (Caliper LS, Hopkinton, MA). Data acquisition and analysis was performed using the Living Image@ software (Caliper LS). Approximately 15 minutes prior to in vivo imaging, VM/Dk mice received an intraperitoneal injection of D-Luciferin (50 mg/kg; 88293, Thermo Fisher Scientific; Waltham, MA). Bioluminescent signal was obtained using the IVIS Lumina cooled CCD camera system in both prone and supine positions. As only the cancer cells were transfected with the luciferase gene, bioluminescent signal (photons/sec) of the whole animal was measured and tracked over time as an indicator of tumor burden and metastatic spread. At EOL, primary tumor, spleen, liver, and adipose tissue were gathered and saturated with D-Luciferin (10 μL D-Luciferin+PBS/g tissue at 5 mg D-Luciferin/mL PBS dilution) for 5 mins and imaged to determine tumor burden. Ascites fluid was imaged 15 minutes after resuspension with D-Luciferin (20 μL D-Luciferin+PBS/mL ascites fluid at 5 mg D-Luciferin/mL PBS dilution) to assess presence of circulating tumor cells. […]

Setting [1] is: weekly, KDE+VM-M3 vs VM-M3 and Sham.

As to `CC(=O)CC(=O)OCCC(C)OC(=O)CC(C)=O` (stereo not shown) [KDE, R/S 1,3-butanediol acetoacetate diester], under “KDE+VM-M3 vs VM-M3”, the blood lactate entry was “No difference” and the “food intake (anorexic phenotype)” value is listed as “attenuation of the predicted anorexic phenotype”. The bodyweight result (daily, KDE+VM-M3 vs VM-M3 and Sham) is given as “lower bodyweight”. The ascites fluid weight (week 3, KDE+VM-M3 group (VM-M3 alone 3.0 g, Sham 0 g)) was 1.9 g. Moreover, under “week 3, KDE+VM-M3 vs VM-M3”, the “ascites fluid (surrogate marker of metastatic spread)” value was “significantly reduced”, the “intraperitoneal adipose tissue weight (adipose tissue catabolism)” value was “unable to alter adipose tissue catabolism”, the “serum IGF-1” value is listed as “did not alter circulating anabolic hormone levels” and the serum insulin entry is reported as “did not alter circulating anabolic hormone levels”. For the setting “week 3, KDE+VM-M3 vs VM-M3”, the “skeletal muscle atrophy (Gastrocnemius, Soleus, Quadricep, Tibialis Anterior, Hind Limb weights)” value is on record as “did attenuate muscle atrophy”. In addition, the “cardiac tissue weight set to baseline bodyweight” value (week 3, across groups) is listed as “unaltered”. In addition, the “whole animal tumor burden (in vivo bioluminescence)” value (weekly imaging, KDE+VM-M3 vs VM-M3) is listed as “non-significant reductions”. For the same molecule, under setting [1], the blood glucose result is “reductions in blood glucose” and the circulating ketones entry is given as “sustained elevations”.

Source of the values: patent US12648924B2, “Prevention and treatment of effects of aging and age-associated disorders with ketone supplementation” (priority 2020, dated 2026).
